Where a name gives a salt, the structure may show the parent alone.
Experiments:
[1] = target: T1, mGFP-tagged K-rasG12V in BHK cells (Homo sapiens, UniProt P01116, G12V); assay: Immuno-electron microscopy and spatial analysis of plasma membrane sheets, K-rasG12V; format: cell-based, hamster; conditions: 6 μg/mL, 48 h
T1 construct: BHK cells expressing GFP-tagged full length constitutively active Ras (G12V) proteins; expressed in transfected cells
Procedure: FIG. 4: Illustrates that fendiline HCl alters plasma membrane association and nanoclustering of K-ras: Plasma membrane sheets were generated from cells expressing GFP-K-rasG12V or GFP-H-rasG12V. Cells were treated with vehicle or fendiline HCl (6 μg/mL) for 48 h. Plasma membrane sheets were labeled with anti-GFP antibody conjugated to 4.5 nm gold. The plasma membrane sheets were imaged in an electron microscope and the spatial distribution of the gold labeling was analyzed using Ripley's K-function. Maximum L(r)-r values above the 99% confidence interval (C.I.) for complete spatial randomness (CSR) indicate clustering at that value of r. […] Significant differences from the control pattern for fendiline treated cells were assessed using bootstrap tests, wherein experimentation was performed in accordance with principles described herein;
Immuno-EM and spatial analysis were conducted exactly as described previously (Hancock, J. F., and Prior, I. A. (2005). Electron microscopic imaging of Ras signaling domains. Methods 37, 165-172; Prior, I. A., Muncke, C., Parton, R. G., and Hancock, J. F. (2003). Direct visualization of Ras proteins in spatially distinct cell surface microdomains. J Cell Biol 160, 165-170). […] Intact 1-μm^2 areas of the plasma membrane sheet were identified using ImageJ, and the x-y coordinates of the gold particles were determined. […]

[2] = tested on: BHK cells stably expressing K-rasG12V; assay: Signaling downstream of oncogenic K-ras by quantitative Western blotting; format: cell-based, hamster; conditions: 6 μg/mL, 48 h, K-rasG12V BHK cells
Procedure: FIG. 5: Illustrates that fendiline HCl inhibits Raf kinase activity and signaling downstream of oncogenic K-ras: BHK cells stably expressing K-rasG12V were treated with vehicle or fendiline HCl (6 μg/mL) for 48 h. (A) Raf kinase activity in membrane fractions prepared from the cells was measured in a coupled […] kinase assay. Data is shown as mean±SEM from 3 independent experiments. (B) ppMEK and ppERK in soluble protein fraction and pAkt levels in membrane protein fraction were measured by quantitative Western blotting. Actin and Akt were used as loading controls for soluble and membrane fractions, respectively. A representative blots are shown. Data is shown as mean±SEM from 3-4 independent experiments. Statistical significance was calculated using one way ANOVA and Student's T-test. (*=p<0.05), wherein experimentation was performed in accordance with principles described herein;
(§1) Preparation of whole-cell lysates: cells were lysed in Buffer B (50 mM Tris [pH 7.5], 75 mM NaCl, 25 mM NaF, 5 mM MgCl2, 5 mM EGTA, 1 mM dithiothreitol, 100 μM NaVO4, 1% Nonidet P-40 plus protease inhibitors). Cellular fractionation: cells were incubated in Buffer A (10 mm Tris-HCl, pH 7.5, 25 mm NaF, 5 mm MgCl2, 1 mm EGTA, 1 mm dithiothreitol, 100 μm NaVO4 plus protease inhibitors) for 30 minutes on ice and lysed by passing through a 27 G needle 30 times. The post nuclear supernatant was centrifuged at 100,000 g for 30 minutes and the membrane pellet was resuspended in Buffer A containing 1% Triton X-100.
(§2) Quantification of intensities was performed using FluorChemQ software.

[3] = tested on: MDCK and BHK cells expressing oncogenic mutant H-RasG12V; assay: Signaling in cells expressing oncogenic H-RasG12V, Western blotting; format: cell-based, canine (MDCK), hamster (BHK); conditions: to the similar extent as in K-rasG12V cells, 6 μg/mL, 48 h
Procedure: FIG. 7: Illustrates that H-rasG12V signals through endogenous K-ras: BHK cells stably expressing H-rasG12V were treated with vehicle or fendiline HCl (6 μg/mL) for 48 h. (A) ppMEK and ppERK in soluble protein fraction and pAkt levels in membrane protein fraction were measured by quantitative Western blotting. A representative blots are shown. (B) BHK cells stably expressing H-rasG12V were transfected with K-ras siRNA encoding plasmid. 24 h after transfection, cells were treated with vehicle or fendiline HCl (6 μg/mL) for a further 48 h. Whole cell lysates were prepared from serum starved cells and analyzed by quantitative Western blotting. Representative Western blots are shown. Data is shown as mean±SEM from 6 independent experiments. […] (*=p<0.05), and experimentation was performed in accordance with principles described herein;
as §1, §2

[4] = tested on: human oral cancer cells, PC3 prostate cancer cells and MDCK cells; conditions: cited from earlier work

CC(NCCC(c1ccccc1)c1ccccc1)c1ccccc1 (stereo not drawn) [fendiline HCl]
clustering of K-rasG12V on plasma membrane [1]: reduced clustering of both K- and H-rasG12V proteins
plasma membrane associated K-rasG12V (EM gold labeling) [1]: reduces the plasma membrane associated K-rasG12V
pAkt levels ([2]; membrane fraction): decreases the pAkt levels, although not statistically significant
cellular levels of pERK ([2]; vs vehicle): significantly reduces
cellular levels of pMEK ([2]; vs vehicle): significantly reduces
pAkt levels [3]: decreased
pERK levels [3]: decreased
pMEK levels [3]: decreased
intracellular Ca2+ [4]: increase intracellular Ca^2+

Source: patent US9474730B2, “Methods and compositions for use with K-ras mediated disorders” (Board of Regents of the University of Texas System, priority 2012, dated 2016)
